# From ChEMBL document CHEMBL1201862, “PubChem BioAssay data set” (2004)
# Calls of active or inactive are those of the source.
# How the values were obtained:
# [1] = cells
# [2] = HEp-2 cell cytotoxicity, dose response, cytotoxicity control for RSV inhibitor project, HTS (AID 2410); assay type: functional; conditions: human respiratory syncytial virus
# [3] = biological target: Peroxisome proliferator-activated receptor gamma/Nuclear receptor coactivator 1 (Homo sapiens, UniProt P37231); test: TR-FRET dose response biochemical High Throughput Screening assay for agonists of the steroid receptor coactivator 1 (SRC-1) recruitment by the peroxisome proliferator-activated receptor gamma (PPAR gamma): non-selective agonists. [Related pubchem assays (depositor defined):AID1300, AID1808, AID504735, AID631]; assay type: protein assay
# [4] = biological target: T1, DNA dC->dU-editing enzyme APOBEC-3A (Homo sapiens, UniProt P31941); test: APOBEC3A DNA deaminase inhibitors, dose response, biochemical (AID 504722); assay type: functional
# [5] = biological target: Peroxisome proliferator-activated receptor gamma/Nuclear receptor coactivator 3 (Homo sapiens, UniProt P37231); test: TR-FRET dose response biochemical High Throughput Screening assay for agonists of the steroid receptor coactivator 3 (SRC-3) recruitment by the peroxisome proliferator-activated receptor gamma (PPAR gamma): non-selective agonists. [Related pubchem assays: 1301 (Confirmation screen.), 1048 (Primary screen.)]; assay type: functional
# [6] = biological target: Peroxisome proliferator-activated receptor gamma/Nuclear receptor coactivator 2 (Homo sapiens, UniProt P37231); test: TR-FRET dose response biochemical High Throughput Screening assay for agonists of the steroid receptor coactivator 2 (SRC-2) recruitment by the peroxisome proliferator-activated receptor gamma (PPAR gamma): non-selective agonists. [Related pubchem assays: 1297, 1032 ]; assay type: functional
# [7] = biological target: FAD-linked sulfhydryl oxidase ALR (Homo sapiens, UniProt P55789); test: inhibitors of human ALR sulfhydryl oxidase, dose response, biochemical, H2O2 detection, luminescence, cherry-pick (AID 493248)
# [8] = biological target: T2, DNA dC->dU-editing enzyme APOBEC-3G (Homo sapiens, UniProt Q9HC16); test: Dose Response confirmation of small molecule APOBEC3G DNA Deaminase Inhibitors via a fluorescence-based single-stranded DNA deaminase assay. [Related pubchem assays (depositor defined):AID493012, AID493028]; assay type: functional
# [9] = biological target: Polyadenylate-binding protein 1 (Homo sapiens, UniProt P11940); test: PABP poly(A) RNA binding inhibitors, primary screen, biochemical, fluorescence polarization, uHTS (AID 2014)
# [10] = biological target: Eukaryotic translation initiation factor 4H (Homo sapiens, UniProt Q15056); test: human eIF4H binding inhibitors, primary screen, translation initiation inhibitor project, biochemical, uHTS, fluorescence polarization (AID 2012)
# [11] = A High Throughput Confirmatory Assay used to Identify Novel Compounds that Inhibit Mycobacterium Tuberculosis in the absence of Glycerol.; assay type: functional
# [12] = microbe, parasite or virus in culture; assay type: functional; conditions: Mycobacterium tuberculosis
# [13] = cytotoxicity in HPDE-C7 cells, cell-based, fluorescence, HTS (AID 430); assay type: functional; conditions: Homo sapiens
# [14] = cytotoxicity in KRAS-transformed pancreatic duct cells, primary screen, cell-based, fluorescence, HTS (AID 431); assay type: functional; conditions: Homo sapiens;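 further: cell line used: HPDE-C7K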
# [15] = biological target: T3, Leucine aminopeptidase (Plasmodium falciparum 3D7, UniProt Q8IL11); test: P. falciparum M17LAP inhibitors, primary screen, biochemical, fluorogenic H-Leu-NHMec substrate, 1536-well (AID 1619); assay type: functional
# T3 sequence (Q8IL11 whole entry): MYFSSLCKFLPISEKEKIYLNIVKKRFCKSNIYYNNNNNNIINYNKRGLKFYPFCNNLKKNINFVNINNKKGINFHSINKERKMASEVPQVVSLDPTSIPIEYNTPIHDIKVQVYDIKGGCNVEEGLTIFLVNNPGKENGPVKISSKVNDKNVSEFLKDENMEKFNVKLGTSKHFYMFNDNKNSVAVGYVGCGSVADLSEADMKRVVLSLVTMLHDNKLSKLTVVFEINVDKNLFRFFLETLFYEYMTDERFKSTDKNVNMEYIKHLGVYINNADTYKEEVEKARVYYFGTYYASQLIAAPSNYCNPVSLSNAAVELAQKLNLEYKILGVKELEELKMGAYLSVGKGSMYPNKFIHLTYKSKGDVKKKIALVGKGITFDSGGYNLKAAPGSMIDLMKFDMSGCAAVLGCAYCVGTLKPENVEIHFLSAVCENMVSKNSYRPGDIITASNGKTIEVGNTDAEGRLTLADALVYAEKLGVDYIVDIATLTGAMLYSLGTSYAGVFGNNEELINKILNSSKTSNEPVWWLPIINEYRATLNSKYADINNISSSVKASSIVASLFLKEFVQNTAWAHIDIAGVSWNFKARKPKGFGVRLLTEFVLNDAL
# [16] = biological target: Procathepsin L (Homo sapiens, UniProt P07711); test: cathepsin L inhibitors, dose response, counter-screen for M1/M17 aminopeptidase inhibitor project, biochemical, QFRET, 1536-well (AID 2214)
# [17] = biological target: T4, Aspartyl aminopeptidase (Plasmodium falciparum 3D7, UniProt Q8I2J3); test: Counterscreen for inhibitors of M1 and M17 aminopeptidases: QFRET-based biochemical high throughput dose response assay for inhibitors of the Plasmodium falciparum M18 Aspartyl Aminopeptidase (PFM18AAP). [Related PubChem assays: 1619 (Screening assay (M17LAP inhibitors).), 1445 (Screening assay (M1AAP inhibitors).)]
# T4 sequence (Q8I2J3 whole entry): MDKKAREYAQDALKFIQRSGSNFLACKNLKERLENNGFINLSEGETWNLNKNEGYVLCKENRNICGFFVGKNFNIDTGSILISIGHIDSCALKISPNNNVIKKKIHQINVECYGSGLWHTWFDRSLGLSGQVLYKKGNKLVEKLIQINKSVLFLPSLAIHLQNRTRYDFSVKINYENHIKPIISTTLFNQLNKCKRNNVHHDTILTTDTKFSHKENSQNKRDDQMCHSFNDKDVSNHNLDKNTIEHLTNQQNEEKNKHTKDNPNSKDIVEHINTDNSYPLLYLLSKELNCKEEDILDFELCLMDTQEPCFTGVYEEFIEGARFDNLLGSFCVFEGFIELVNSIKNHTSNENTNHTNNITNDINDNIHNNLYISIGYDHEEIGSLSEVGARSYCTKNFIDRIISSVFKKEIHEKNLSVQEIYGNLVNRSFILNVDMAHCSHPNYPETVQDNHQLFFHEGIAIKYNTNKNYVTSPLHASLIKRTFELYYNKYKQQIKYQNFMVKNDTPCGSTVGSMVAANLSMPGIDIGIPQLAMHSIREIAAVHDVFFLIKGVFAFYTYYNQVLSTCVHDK
# [18] = biological target: CAAX prenyl protease 2 (Saccharomyces cerevisiae S288c, UniProt Q03530); assay type: biochemical
# [19] = biological target: T1, DNA dC->dU-editing enzyme APOBEC-3A; test: Dose Response confirmation of small molecule APOBEC3A DNA Deaminase Inhibitors via a fluorescence-based single-stranded DNA deaminase assay. [Related pubchem assays (depositor defined):AID493011, AID493024]; assay type: functional
# [20] = biological target: T2, DNA dC->dU-editing enzyme APOBEC-3G; assay type: functional
# [21] = biological target: T5, Ubiquitin-conjugating enzyme E2 N (Homo sapiens, UniProt P61088); assay type: functional;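 further: Dose-response confirmation in a TR-FRET assay detecting UBC13-driven polyubiquitin chain formation, inhibition measured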
# T5 sequence (P61088 whole entry): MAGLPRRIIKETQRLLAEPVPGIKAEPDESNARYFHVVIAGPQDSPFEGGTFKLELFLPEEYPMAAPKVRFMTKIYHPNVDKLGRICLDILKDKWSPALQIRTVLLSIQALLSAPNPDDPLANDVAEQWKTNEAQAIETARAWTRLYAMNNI
# [22] = cells; assay type: functional, cell-based
# [23] = cells; assay type: functional, cell-based; remark: listed apart in the source
# [24] = test system: HEK293; test: Fluorescence-based counterscreen for potentiators or agonists of NPY-Y2: cell-based high-throughput dose response assay to identify inhibitors of cyclic nucleotide gated ion channel (CNGC) activity. In this assay, the parental HEK293 cell line transfected with a cyclic-nucleotide gated ion channel (CNGC)-based cAMP sensor is used to measure inhibition of isoproterenol-induced CNGC activity by test compound.; assay type: functional; conditions: Homo sapiens;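 further: stimulus is 1 µM isoproterenol at EC100 plus PDE inhibitor Ro 20-1724 at 25 µM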
# [25] = biological target: T6, Neuropeptide Y receptor type 1 (Homo sapiens, UniProt P25929); test: Fluorescence-based counterscreen for agonists of NPY-Y2: cell-based high-throughput dose response assay for agonists of NPY-Y1.; assay type: functional
# T6 sequence (P25929 whole entry): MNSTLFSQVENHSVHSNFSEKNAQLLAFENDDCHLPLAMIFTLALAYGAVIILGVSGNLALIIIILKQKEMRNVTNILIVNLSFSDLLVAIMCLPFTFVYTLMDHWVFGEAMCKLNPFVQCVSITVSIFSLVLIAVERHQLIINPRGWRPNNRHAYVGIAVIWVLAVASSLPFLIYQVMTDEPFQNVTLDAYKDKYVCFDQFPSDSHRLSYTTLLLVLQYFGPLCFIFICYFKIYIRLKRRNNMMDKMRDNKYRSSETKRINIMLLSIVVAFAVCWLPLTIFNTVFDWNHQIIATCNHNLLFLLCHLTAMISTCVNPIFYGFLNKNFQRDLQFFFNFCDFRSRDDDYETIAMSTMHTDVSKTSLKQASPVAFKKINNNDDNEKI
# [26] = biological target: T7, Neuropeptide Y receptor type 2 (Homo sapiens, UniProt P49146); test: Fluorescence-based cell-based high-throughput dose response assay for agonists of NPY-Y2. [Related pubchem assays: 1703 (Screening assay (CNGC inhibitors).), 1359 (Screening assay (NPY-Y2 potentiators or agonists).), 1304 (Screening assay (NPY-Y1 potentiators or agonists).), 1710 (Screening assay (NPY-Y2 agonists).), 1791 (Summary AID.)]; assay type: functional
# T7 sequence (P49146 whole entry): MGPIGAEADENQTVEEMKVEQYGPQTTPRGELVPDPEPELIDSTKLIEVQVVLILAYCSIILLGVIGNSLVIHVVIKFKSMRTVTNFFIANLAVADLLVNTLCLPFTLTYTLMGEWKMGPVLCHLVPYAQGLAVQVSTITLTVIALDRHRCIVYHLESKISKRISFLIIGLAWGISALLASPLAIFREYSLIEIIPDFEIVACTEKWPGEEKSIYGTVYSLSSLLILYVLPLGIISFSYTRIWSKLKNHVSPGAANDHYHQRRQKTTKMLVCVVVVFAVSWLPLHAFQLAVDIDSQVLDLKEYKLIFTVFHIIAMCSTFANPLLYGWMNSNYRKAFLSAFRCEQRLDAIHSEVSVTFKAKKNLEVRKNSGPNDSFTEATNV
# T2 sequence (Q9HC16 whole entry): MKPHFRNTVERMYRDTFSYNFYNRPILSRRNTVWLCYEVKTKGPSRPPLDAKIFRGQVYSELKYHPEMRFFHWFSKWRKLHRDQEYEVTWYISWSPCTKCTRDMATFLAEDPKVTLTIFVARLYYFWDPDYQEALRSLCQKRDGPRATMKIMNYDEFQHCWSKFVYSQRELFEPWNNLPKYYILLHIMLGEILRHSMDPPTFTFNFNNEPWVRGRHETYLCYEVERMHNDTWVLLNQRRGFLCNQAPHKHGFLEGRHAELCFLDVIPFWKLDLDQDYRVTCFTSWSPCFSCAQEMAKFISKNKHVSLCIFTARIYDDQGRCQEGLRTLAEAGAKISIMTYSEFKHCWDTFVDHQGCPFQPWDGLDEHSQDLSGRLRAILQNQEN
# T1 sequence (P31941 whole entry): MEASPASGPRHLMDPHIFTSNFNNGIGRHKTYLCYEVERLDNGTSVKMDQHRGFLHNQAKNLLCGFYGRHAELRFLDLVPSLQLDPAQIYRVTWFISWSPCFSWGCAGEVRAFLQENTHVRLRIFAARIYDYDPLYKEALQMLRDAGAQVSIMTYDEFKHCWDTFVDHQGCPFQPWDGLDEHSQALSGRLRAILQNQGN
# Chain of Procathepsin L (P07711 whole entry): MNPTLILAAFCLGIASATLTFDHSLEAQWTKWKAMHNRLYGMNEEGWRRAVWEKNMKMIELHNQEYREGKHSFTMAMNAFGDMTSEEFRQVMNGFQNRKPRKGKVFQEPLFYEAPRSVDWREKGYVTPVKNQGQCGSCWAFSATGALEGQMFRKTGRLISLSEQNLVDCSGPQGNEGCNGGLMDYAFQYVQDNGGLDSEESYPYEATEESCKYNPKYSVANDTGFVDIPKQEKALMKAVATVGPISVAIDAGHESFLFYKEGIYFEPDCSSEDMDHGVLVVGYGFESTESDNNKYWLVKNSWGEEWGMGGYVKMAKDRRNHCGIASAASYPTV
# Chain of CAAX prenyl protease 2 (Q03530 whole entry): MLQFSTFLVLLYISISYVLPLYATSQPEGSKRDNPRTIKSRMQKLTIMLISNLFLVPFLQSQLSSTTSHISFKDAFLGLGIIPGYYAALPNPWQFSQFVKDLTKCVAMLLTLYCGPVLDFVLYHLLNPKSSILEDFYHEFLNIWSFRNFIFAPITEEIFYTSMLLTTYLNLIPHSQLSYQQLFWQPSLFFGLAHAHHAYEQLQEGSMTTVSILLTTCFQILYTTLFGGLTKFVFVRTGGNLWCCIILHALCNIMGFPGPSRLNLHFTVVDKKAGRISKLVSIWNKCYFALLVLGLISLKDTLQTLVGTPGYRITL
# Chain of Peroxisome proliferator-activated receptor gamma/Nuclear receptor coactivator 2 (P37231 whole entry): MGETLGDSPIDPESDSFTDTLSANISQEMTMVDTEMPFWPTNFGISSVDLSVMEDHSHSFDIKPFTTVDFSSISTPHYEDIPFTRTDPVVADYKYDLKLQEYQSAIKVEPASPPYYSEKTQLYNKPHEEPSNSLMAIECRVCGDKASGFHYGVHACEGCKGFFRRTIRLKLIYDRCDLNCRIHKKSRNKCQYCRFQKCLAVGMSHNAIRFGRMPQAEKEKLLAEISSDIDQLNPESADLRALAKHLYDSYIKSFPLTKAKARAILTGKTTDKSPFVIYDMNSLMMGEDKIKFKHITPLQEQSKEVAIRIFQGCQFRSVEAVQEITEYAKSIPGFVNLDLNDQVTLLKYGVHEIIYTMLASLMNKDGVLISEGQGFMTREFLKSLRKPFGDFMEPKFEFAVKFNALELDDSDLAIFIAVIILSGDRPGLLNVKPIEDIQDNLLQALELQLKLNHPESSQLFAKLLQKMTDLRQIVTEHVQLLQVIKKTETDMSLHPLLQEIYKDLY
# Chain of Peroxisome proliferator-activated receptor gamma/Nuclear receptor coactivator 2 (Q15596 whole entry, further chain): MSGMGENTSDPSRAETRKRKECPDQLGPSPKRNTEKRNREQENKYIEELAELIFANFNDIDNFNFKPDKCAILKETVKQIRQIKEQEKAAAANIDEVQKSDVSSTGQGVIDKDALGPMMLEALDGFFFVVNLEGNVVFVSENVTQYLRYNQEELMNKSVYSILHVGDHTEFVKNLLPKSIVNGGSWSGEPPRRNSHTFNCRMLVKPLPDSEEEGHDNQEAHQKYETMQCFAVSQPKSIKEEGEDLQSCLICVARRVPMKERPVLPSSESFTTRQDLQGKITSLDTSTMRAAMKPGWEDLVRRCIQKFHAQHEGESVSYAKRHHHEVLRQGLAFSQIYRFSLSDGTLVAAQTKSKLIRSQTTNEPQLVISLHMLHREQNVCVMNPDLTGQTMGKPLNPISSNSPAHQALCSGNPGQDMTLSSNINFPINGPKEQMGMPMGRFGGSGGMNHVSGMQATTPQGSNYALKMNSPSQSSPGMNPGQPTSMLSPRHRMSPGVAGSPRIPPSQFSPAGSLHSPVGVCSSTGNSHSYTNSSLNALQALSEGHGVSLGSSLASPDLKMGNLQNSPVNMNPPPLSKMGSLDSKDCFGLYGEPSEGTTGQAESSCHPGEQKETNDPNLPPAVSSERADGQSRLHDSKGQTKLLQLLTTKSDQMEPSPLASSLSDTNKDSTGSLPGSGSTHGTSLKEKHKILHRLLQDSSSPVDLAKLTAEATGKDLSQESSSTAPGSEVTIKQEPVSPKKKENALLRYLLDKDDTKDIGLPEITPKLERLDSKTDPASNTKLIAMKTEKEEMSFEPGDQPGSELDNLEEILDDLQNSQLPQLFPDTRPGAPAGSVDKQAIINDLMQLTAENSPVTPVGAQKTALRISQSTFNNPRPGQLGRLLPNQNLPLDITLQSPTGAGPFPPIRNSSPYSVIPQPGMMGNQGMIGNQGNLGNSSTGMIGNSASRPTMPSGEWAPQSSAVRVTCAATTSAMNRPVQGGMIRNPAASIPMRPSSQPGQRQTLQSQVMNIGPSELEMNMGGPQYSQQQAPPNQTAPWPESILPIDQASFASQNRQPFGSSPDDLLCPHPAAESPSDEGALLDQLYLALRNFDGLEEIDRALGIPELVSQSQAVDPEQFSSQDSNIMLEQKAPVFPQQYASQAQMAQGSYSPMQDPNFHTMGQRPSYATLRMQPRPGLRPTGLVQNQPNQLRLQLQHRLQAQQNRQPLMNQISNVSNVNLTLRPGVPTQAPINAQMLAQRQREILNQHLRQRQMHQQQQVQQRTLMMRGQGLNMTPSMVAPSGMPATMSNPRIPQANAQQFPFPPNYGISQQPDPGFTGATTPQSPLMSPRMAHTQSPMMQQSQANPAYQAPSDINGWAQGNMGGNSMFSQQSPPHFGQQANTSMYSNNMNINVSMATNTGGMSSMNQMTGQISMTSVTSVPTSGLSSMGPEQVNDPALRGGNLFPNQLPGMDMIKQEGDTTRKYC
# Chain of FAD-linked sulfhydryl oxidase ALR (P55789 whole entry): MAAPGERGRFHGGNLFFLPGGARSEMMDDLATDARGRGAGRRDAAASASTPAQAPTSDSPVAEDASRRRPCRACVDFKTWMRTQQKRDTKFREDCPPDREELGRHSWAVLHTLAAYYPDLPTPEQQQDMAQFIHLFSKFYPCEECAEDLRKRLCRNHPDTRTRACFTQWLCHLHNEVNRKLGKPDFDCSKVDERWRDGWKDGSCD
# Chain of Polyadenylate-binding protein 1 (P11940 whole entry): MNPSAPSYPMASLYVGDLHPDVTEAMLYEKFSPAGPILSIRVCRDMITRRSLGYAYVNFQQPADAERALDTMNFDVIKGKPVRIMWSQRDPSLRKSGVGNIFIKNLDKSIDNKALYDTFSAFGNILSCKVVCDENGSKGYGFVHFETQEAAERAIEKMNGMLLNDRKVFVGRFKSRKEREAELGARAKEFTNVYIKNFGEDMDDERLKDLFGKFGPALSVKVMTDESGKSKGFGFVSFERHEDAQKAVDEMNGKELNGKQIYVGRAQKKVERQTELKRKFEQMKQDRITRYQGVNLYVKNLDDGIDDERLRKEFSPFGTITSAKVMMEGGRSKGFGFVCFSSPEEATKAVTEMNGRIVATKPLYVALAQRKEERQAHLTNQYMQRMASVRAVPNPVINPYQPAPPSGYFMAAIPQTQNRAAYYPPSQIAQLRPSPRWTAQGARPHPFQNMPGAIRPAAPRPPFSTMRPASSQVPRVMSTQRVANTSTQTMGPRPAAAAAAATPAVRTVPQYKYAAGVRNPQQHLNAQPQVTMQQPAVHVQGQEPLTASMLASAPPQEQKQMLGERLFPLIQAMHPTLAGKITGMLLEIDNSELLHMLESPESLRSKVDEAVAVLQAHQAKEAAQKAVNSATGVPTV
compound,measurement,setting,value
Cc1cc(Nc2ccccc2Cl)nc(-c2ccccc2O)n1,IC50,[1],34.7 µM (active)
same,CC50,[2],38.5 µM (active)
Cc1cccc(-n2c(S)nnc2-c2ccco2)c1,EC50,[3],> 79.4 µM (inactive)
same,IC50,[4],> 100 µM (inactive)
same,EC50,[5],> 79.4 µM (not active)
same,EC50,[6],> 79.4 µM (not active)
same,AC50,[7],5.51 µM (active)
same,IC50,[8],6.36 µM (active)
CN(Cc1cccc(Cl)c1)C(=O)C1CSC2(C)CCC(=O)N12 (centres undefined),IC50,[9],29.4 µM (active)
same,IC50,[10],> 100 µM (inactive)
CCCCCNc1nc(N2CCCC2)c2c(c1C#N)CCN(C)C2,IC50,[11],> 100 µM (active)
same,CC50,[12],> 40 µM (active)
CCc1c(C)nc(N)nc1OCC(F)(F)C(F)F,EC50,[13],> 20 µM (not active)
same,EC50,[14],> 20 µM (not active)
Cc1cccc(NC(=O)CSc2nc(O)c(C#N)c(-c3ccccc3)n2)c1C,IC50,[15],5.37 µM (active)
same,IC50,[16],> 59.6 µM (not active)
same,IC50,[17],> 73.5 µM (not active)
Nc1c(Cl)cc(C2=NCCn3nc4cc(C(F)(F)F)ccc4c32)cc1Cl,AC50,[18],5.28 µM (active)
Cc1ccc(-c2cccc(NC(=O)C3C4C=CC(C4)C3C(=O)O)c2)o1 (centres undefined),IC50,[15],3.86 µM (active)
same,IC50,[16],> 59.6 µM (not active)
same,IC50,[17],> 73.5 µM (not active)
CCn1c(C)cc(/C=C2\NC(=O)N(CC(=O)Nc3ccc(F)cc3)C2=O)c1C,IC50,[19],1.24 µM (active)
same,IC50,[20],2.2 µM (active)
Cc1ccc2c(c1)C1C[N+](C)(CC(=O)c3ccc(Cl)cc3Cl)CCC1N2C(=O)c1ccc(F)cc1 (centres undefined),IC50,[19],2.65 µM (active)
same,IC50,[21],> 20 µM (inactive)
same,IC50,[20],2.88 µM (active)
COc1cc2ccccc2cc1C(=O)N(CCN(C)C)c1nc2ccc(C)cc2s1,AC50,[18],11.3 µM (active)
Cc1sc2ncnc(N3CCC(C(=O)N(CC(C)C)c4nc5ccccc5s4)CC3)c2c1C,IC50,[11],> 100 µM (active)
same,CC50,[12],> 40 µM (active)
Cc1ccc(O)c(-c2cc(-c3ccccc3C)[nH]n2)c1,EC50,[13],11 µM (active)
same,EC50,[14],8.16 µM (active)
Sc1nnc(-c2ccco2)n1/N=C/c1cccs1,EC50,[22],> 350 µM (not active)
same,IC50,[4],> 100 µM (inactive)
same,IC50,[8],3.28 µM (active)
same,EC50,[23],> 350 µM (not active)
COc1ccc(S(=O)(=O)NCc2ccco2)cc1-c1nnc2c3ccccc3c(C)nn12,IC50,[1],11.2 µM (active)
CCc1cc[n+](/C(C([S-])=Nc2cccc(C)c2)=C(/O)c2ccc(C)c([N+](=O)[O-])c2)cc1,EC50,[24],> 35.4 µM (not active)
same,EC50,[25],> 35.4 µM (not active)
same,EC50,[26],> 35.4 µM (not active)
